According to patent publication US11117921B2, “Methods for synthesizing nucleotide analogues with disulfide linkers” (IsoPlexis Corporation, priority 2015, dated 2021):

Assay: Cleavage experiments with thiol cleavage agents, RP-HPLC (FIG. 77, 78A-B)
Conditions: RP-HPLC after 10 minutes of incubation with cleave reagent
Text: In addition to these a variety of suitable cleaving agents can be used such as Bis(2-mercaptoethyl)sulfone (BMS) and N,N′-dimethyl-N,N-bis(mercaptoacetyl)hydrazine (DMH) (Singh et al., Bioorg. Chem., 22, 109-115 (1994). Reactions can be further catalyzed by inclusion of selenols (Singh et al. Anal Biochem. 1995 Nov. 20; 232(1):86-91 [18]). Borohydrides, such as sodium borohydrides can also be used for this purpose (Stahl et al., Anal. Chem., 1957, 29 (1), pp 154-155 [19]) as well as ascorbic acid (Nardai et al., J. Biol. Chem. 276, 8825-8828 (2001)). In addition, enzymatic methods for cleavage of disulfide bonds are also well known such as disulfide and thioreductase and can be used with compounds of the present invention (Holmgren et al., Methods in Enzymology, Volume 252, 1995, Pages 199-208 [21]).

Compound | composition of cleavage reaction mixture (extent of cleavage)
NCCS [cysteamine] | full cleavage of both linker and the 3′-protective groups
N[C@@H](CS)C(=O)O [L-cysteine] | full cleavage of both linker and the 3′-protective groups
OC(=S)CCC(O)=S [dithiosuccinic acid] | selective cleavage of 3′-O-protective group
O[C@H](CS)[C@H](O)CS (racemic) [DTT, dithiothreitol] | full cleavage of both linker and the 3′-protective groups
